Columns and labels:
[1] = Gel formation in DMSO; format: physicochemical; conditions: sonication (30 sec) or heating to 60 C for 5 minutes and cooling to room temperature
Experimental: The gels can be produced by either 1) sonication (30 sec) or by heating the suspensions to 60 C for 5 minutes and cooling to room temperature.

[2] = test system: DNA; assay: Ethidium bromide-DNA fluorescence quenching exclusion assay; format: binding; conditions: 2 mM HEPES, 150 mM NaCl, 10 μm EDTA, pH 7.4; 60 minutes incubation; triplicate
Experimental: Exclusion assay (adapted from; A. J. Geall, I. S. Blagbrough, Journal of Pharmaceutical and Biomedical Analysis 22 (2000) 849-859)
(§1) Five μg (5 μl of 1 mg/mL solution) of DNA and varying amount of amphiphiles (dependent on the Amphiphile/DNA ratio required) were diluted to 1000 μL with buffer (2 mM HEPES, 150 mM NaCl, 10 μm EDTA, pH 7.4). The solutions were mixed on a bench top vortex and incubated for 60 minutes at ambient temperature. Each solution was then diluted to 3 mL with buffer (2 mM HEPES, 150 mM NaCl, 10 μm EDTA, pH 7.4). Immediately prior to the analysis, 3 μL of Eth Br solution (0.6 mg/ml, 1.3 mM, effectively present in excess) was added, the sample was mixed on a bench top vortex, and the fluorescence measured. The fluorescence was expressed as the percentage of the maximum fluorescence signal when EthBr was bound to the DNA in the absence of amphiphile. Assays were run in triplicate. […] Compound 30a bound DNA and displaced EthBr.

[3] = test system: chinese hamster ovary (CHO) cells; assay: B-galactosidase transfection assay; format: cell-based; conditions: varying concentrations of lipid and DNA, triplicate, 96 well plates, chemiluminescent reporter
Experimental: Transfection assays were performed using the well established B-galactosidase transfection assay. In these experiments the B-galactosidase gene is transfected into cells. Next, the expressed enzyme then cleaves a chemiluminescent reporter that is detected. The assays are conducted with chinese hamster ovary (CHO) cells following a standard lipid transfection procedure. The procedure is performed on varying concentrations of lipid and DNA in triplicate in 96 well plates.

[4] = test system: DNA; assay: Exclusion assay after addition of an esterase (DNA release); format: biochemical; conditions: esterase added to the amphiphile-DNA solution; EthBr intercalates again
Experimental: as §1

| Molecule | Gel formation in DMSO [1] | DNA binding and displacement of EtBr [2] | Transfection of the B-galactosidase gene [3] | DNA release from the amphiphile after esterase cleavage of the ester linkages [4] |
| --- | --- | --- | --- | --- |
| CCCCCCCCCCCCCCCC(=O)O[C@@H]1[C@H](OC(=O)CCCCCCCCCCCCCCC)[C@@H](CO)O[C@H]1n1ccc(=O)[nH]c1=O [2′,3′dipalmitoyl uridine, 2′,3′palmitoyl uridine] | form gels in DMSO |  |  |  |
| C[N+](C)(C)CC(COC(=O)NCCCCCCCCCCCC(=O)OCC1CC(=O)Oc2cc(O)c(Br)cc21)OC(=O)NCCCCCCCCCCCC(=O)OCC1CC(=O)Oc2cc(O)c(Br)cc21.[I-] (stereo not shown) [Compound 26, {2,3-Bis-[11-(6-bromo-7-hydroxy-2-oxo-chroman-4-ylmethoxycarbonyl)-undecylcarbamoyloxy]-propyl}-trimethyl-ammonium iodide] |  | bound DNA and displaced EtBr |  |  |
| C[N+](C)(C)CC(COC(=O)CCCCCCCCCCC(=O)OCc1ccccc1)OC(=O)CCCCCCCCCCC(=O)OCc1ccccc1.[I-] (stereo not shown) [Compound 30a, [2,3-Bis-(11-benzyloxycarbonyl-undecanoyloxy)-propyl]-trimethyl-ammonium; iodide] |  | bound DNA and displaced EtBr | transfected the B-galactosidase gene | releasing the DNA from the amphiphile |
| C[N+](C)(C)CC(COC(=O)CCCCCCCCCCC(=O)OCc1ccccc1[N+](=O)[O-])OC(=O)CCCCCCCCCCC(=O)OCc1ccccc1[N+](=O)[O-].[I-] (stereo not shown) [Compound 30b, {2,3-Bis-[11-(2-nitro-benzyloxycarbonyl)-undecanoyloxy]-propyl}-trimethyl-ammonium; iodide] |  | bound DNA and displaced EtBr |  |  |
| CC(C)(C)OC(=O)CCCCCCCCCCC(=O)OCC(C[N+](C)(C)C)OC(=O)CCCCCCCCCCC(=O)OC(C)(C)C.[I-] (stereo not shown) [Compound 34, [2,3-Bis-(11-tert-butoxycarbonyl-undecanoyloxy)-propyl]-trimethyl-ammonium; iodide] |  | bound DNA and displaced EtBr |  | releasing the DNA from the amphiphile |
| C[N+](C)(C)CC(COC(=O)CCCCCCCCCCC(=O)O)OC(=O)CCCCCCCCCCC(=O)O.[I-] (stereo not shown) [Compound 35, [2,3-Bis-(11-carboxy-undecanoyloxy)-propyl]-trimethyl-ammonium; iodide] |  | did not bind DNA and displace EthBr | minimal transfection activity |  |
| CC(=O)OCC(C[N+](C)(C)C)OC(C)=O.[I-] (stereo not shown) [Compound 36, (2,3-Diacetoxy-propyl)-trimethyl-ammonium; iodide] |  | did not bind DNA and displace EthBr | minimal transfection activity |  |
| C[N+](C)(C)CC(COC(=O)CCCCCCCCCCCOCc1ccccc1)OC(=O)CCCCCCCCCCCOCc1ccccc1.[I-] (stereo not shown) [Compound 40, [2,3-Bis-(12-benzyloxy-dodecanoyloxy)-propyl]-trimethyl-ammonium; iodide] |  |  | transfected the B-galactosidase gene |  |
| CCCCCCCCCCCCCC(=O)OCC(COC(=O)CCCCCCCCCCCCC)OC(=O)CCC(=O)OCC(COC(=O)CCC(=O)OC(COC(=O)CCCCCCCCCCCCC)COC(=O)CCCCCCCCCCCCC)OC(=O)CCC(=O)OC(COC(=O)CCC(=O)OCC[N+](C)(C)C)COC(=O)CCC(=O)OCC[N+](C)(C)C [Compound 85] |  | bound DNA and displaced EtBr |  |  |
| Trimethylamino-[G0]-PGLSA dendrimer iodide [Compound 44] |  | bound DNA and displaced EtBr |  |  |
| Trimethylamino-[G1]-PGLSA dendrimer iodide [Compound 47] |  | bound DNA and displaced EtBr |  |  |
